# Columns and labels:
# [1] = Biodistribution: organ distribution of F-18 signal in mice; assay type: in vivo, male NMRI mice; settings: for Organ distribution of F-18 signal, intestine: intestine (with content); for Organ distribution of F-18 signal, stomach: stomach (without content)
# Procedure, shortened: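 Male NMRI mice (~30 g, 3 per time point) received ca. 150 kBq of the test compound i.v. via tail vein. At 2, 5, 30, 60 and 240 min, urine and feces were collected and organs and tissues taken for gamma counting. Values are decay-corrected % ID/g ± SD.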
# Aβ plaques = biological target: T1, Aβ plaques (Homo sapiens, UniProt P05067); assay: Autoradiographical analysis of binding to cryosections from cortex of AD patients and controls; settings: F-18 labeled compound; Alzheimer's disease patients (AD) vs controls without Aβ plaques
# T1 construct: controls without Aβ plaques; from tissue; host or cells: frontal lobe / cortex sections (frozen and paraffin) from AD patients, FTD patients and age-matched controls
# T1 sequence (P05067 672-713 limits assumed): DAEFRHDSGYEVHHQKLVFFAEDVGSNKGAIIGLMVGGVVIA
# Procedure, shortened: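 Frozen (18 μm) and deparaffinized paraffin (6 μm) frontal-lobe sections from Alzheimer's, frontotemporal dementia and age-matched control brains were incubated 1.5 h at room temperature with F-18 test compound at 10 Bq/μl in 25 mM Hepes pH 7.4, 0.1% BSA. Blocking used 1000-fold excess unlabeled compound; phosphoimager readout.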
smiles,measurement,setting,value
"O=C(NCC(=O)N1CCN(c2ccc(OCc3ccccc3)cc2)CC1)c1ccc([18F])nc1 [Example 10e, N-{2-[4-(4-Benzyloxy-phenyl)-piperazin-1-yl]-2-oxoethyl}-6-[F-18]-fluoro-nicotinamide]","Organ distribution of F-18 signal, adrenals",[1]; 2 min post i.v. injection,7.86 % ID/g
same,"Organ distribution of F-18 signal, adrenals",[1]; 5 min post i.v. injection,6.20 % ID/g
same,"Organ distribution of F-18 signal, adrenals",[1]; 30 min post i.v. injection,2.36 % ID/g
same,"Organ distribution of F-18 signal, adrenals",[1]; 60 min post i.v. injection,0.67 % ID/g
same,"Organ distribution of F-18 signal, adrenals",[1]; 240 min post i.v. injection,0.43 % ID/g
same,"Organ distribution of F-18 signal, blood",[1]; 2 min post i.v. injection,2.01 % ID/g
same,"Organ distribution of F-18 signal, blood",[1]; 5 min post i.v. injection,1.98 % ID/g
same,"Organ distribution of F-18 signal, blood",[1]; 30 min post i.v. injection,1.38 % ID/g
same,"Organ distribution of F-18 signal, blood",[1]; 60 min post i.v. injection,0.55 % ID/g
same,"Organ distribution of F-18 signal, blood",[1]; 240 min post i.v. injection,0.09 % ID/g
same,"Organ distribution of F-18 signal, brain",[1]; 2 min post i.v. injection,4.99 % ID/g
same,"Organ distribution of F-18 signal, brain",[1]; 5 min post i.v. injection,4.33 % ID/g
same,"Organ distribution of F-18 signal, brain",[1]; 30 min post i.v. injection,1.44 % ID/g
same,"Organ distribution of F-18 signal, brain",[1]; 60 min post i.v. injection,0.44 % ID/g
same,"Organ distribution of F-18 signal, brain",[1]; 240 min post i.v. injection,0.04 % ID/g
same,"Organ distribution of F-18 signal, fat",[1]; 2 min post i.v. injection,1.79 % ID/g
same,"Organ distribution of F-18 signal, fat",[1]; 5 min post i.v. injection,2.66 % ID/g
same,"Organ distribution of F-18 signal, fat",[1]; 30 min post i.v. injection,1.95 % ID/g
same,"Organ distribution of F-18 signal, fat",[1]; 60 min post i.v. injection,0.67 % ID/g
same,"Organ distribution of F-18 signal, fat",[1]; 240 min post i.v. injection,0.15 % ID/g
same,"Organ distribution of F-18 signal, femur",[1]; 2 min post i.v. injection,1.44 % ID/g
same,"Organ distribution of F-18 signal, femur",[1]; 5 min post i.v. injection,1.53 % ID/g
same,"Organ distribution of F-18 signal, femur",[1]; 30 min post i.v. injection,1.15 % ID/g
same,"Organ distribution of F-18 signal, femur",[1]; 60 min post i.v. injection,1.43 % ID/g
same,"Organ distribution of F-18 signal, femur",[1]; 240 min post i.v. injection,1.75 % ID/g
same,"Organ distribution of F-18 signal, heart",[1]; 2 min post i.v. injection,5.18 % ID/g
same,"Organ distribution of F-18 signal, heart",[1]; 5 min post i.v. injection,4.49 % ID/g
same,"Organ distribution of F-18 signal, heart",[1]; 30 min post i.v. injection,1.85 % ID/g
same,"Organ distribution of F-18 signal, heart",[1]; 60 min post i.v. injection,0.69 % ID/g
same,"Organ distribution of F-18 signal, heart",[1]; 240 min post i.v. injection,0.11 % ID/g
same,"Organ distribution of F-18 signal, intestine",[1]; 2 min post i.v. injection,2.13 % ID/g
same,"Organ distribution of F-18 signal, intestine",[1]; 5 min post i.v. injection,2.40 % ID/g
same,"Organ distribution of F-18 signal, intestine",[1]; 30 min post i.v. injection,8.20 % ID/g
same,"Organ distribution of F-18 signal, intestine",[1]; 60 min post i.v. injection,10.63 % ID/g
same,"Organ distribution of F-18 signal, intestine",[1]; 240 min post i.v. injection,6.90 % ID/g
same,"Organ distribution of F-18 signal, kidney",[1]; 2 min post i.v. injection,8.58 % ID/g
same,"Organ distribution of F-18 signal, kidney",[1]; 5 min post i.v. injection,7.92 % ID/g
same,"Organ distribution of F-18 signal, kidney",[1]; 30 min post i.v. injection,6.29 % ID/g
same,"Organ distribution of F-18 signal, kidney",[1]; 60 min post i.v. injection,2.61 % ID/g
same,"Organ distribution of F-18 signal, kidney",[1]; 240 min post i.v. injection,0.50 % ID/g
same,"Organ distribution of F-18 signal, liver",[1]; 2 min post i.v. injection,7.44 % ID/g
same,"Organ distribution of F-18 signal, liver",[1]; 5 min post i.v. injection,12.02 % ID/g
same,"Organ distribution of F-18 signal, liver",[1]; 30 min post i.v. injection,9.60 % ID/g
same,"Organ distribution of F-18 signal, liver",[1]; 60 min post i.v. injection,5.27 % ID/g
same,"Organ distribution of F-18 signal, liver",[1]; 240 min post i.v. injection,2.29 % ID/g
same,"Organ distribution of F-18 signal, lung",[1]; 2 min post i.v. injection,4.31 % ID/g
same,"Organ distribution of F-18 signal, lung",[1]; 5 min post i.v. injection,3.86 % ID/g
same,"Organ distribution of F-18 signal, lung",[1]; 30 min post i.v. injection,1.93 % ID/g
same,"Organ distribution of F-18 signal, lung",[1]; 60 min post i.v. injection,0.89 % ID/g
same,"Organ distribution of F-18 signal, lung",[1]; 240 min post i.v. injection,0.10 % ID/g
same,"Organ distribution of F-18 signal, muscle",[1]; 2 min post i.v. injection,2.40 % ID/g
same,"Organ distribution of F-18 signal, muscle",[1]; 5 min post i.v. injection,2.07 % ID/g
same,"Organ distribution of F-18 signal, muscle",[1]; 30 min post i.v. injection,1.16 % ID/g
same,"Organ distribution of F-18 signal, muscle",[1]; 60 min post i.v. injection,0.34 % ID/g
same,"Organ distribution of F-18 signal, muscle",[1]; 240 min post i.v. injection,0.06 % ID/g
same,"Organ distribution of F-18 signal, pancreas",[1]; 2 min post i.v. injection,4.59 % ID/g
same,"Organ distribution of F-18 signal, pancreas",[1]; 5 min post i.v. injection,4.54 % ID/g
same,"Organ distribution of F-18 signal, pancreas",[1]; 30 min post i.v. injection,2.27 % ID/g
same,"Organ distribution of F-18 signal, pancreas",[1]; 60 min post i.v. injection,0.92 % ID/g
same,"Organ distribution of F-18 signal, pancreas",[1]; 240 min post i.v. injection,1.07 % ID/g
same,"Organ distribution of F-18 signal, skin",[1]; 2 min post i.v. injection,1.37 % ID/g
same,"Organ distribution of F-18 signal, skin",[1]; 5 min post i.v. injection,1.76 % ID/g
same,"Organ distribution of F-18 signal, skin",[1]; 30 min post i.v. injection,1.39 % ID/g
same,"Organ distribution of F-18 signal, skin",[1]; 60 min post i.v. injection,0.51 % ID/g
same,"Organ distribution of F-18 signal, skin",[1]; 240 min post i.v. injection,0.08 % ID/g
same,"Organ distribution of F-18 signal, spleen",[1]; 2 min post i.v. injection,1.96 % ID/g
same,"Organ distribution of F-18 signal, spleen",[1]; 5 min post i.v. injection,1.99 % ID/g
same,"Organ distribution of F-18 signal, spleen",[1]; 30 min post i.v. injection,1.08 % ID/g
same,"Organ distribution of F-18 signal, spleen",[1]; 60 min post i.v. injection,0.35 % ID/g
same,"Organ distribution of F-18 signal, spleen",[1]; 240 min post i.v. injection,0.06 % ID/g
same,"Organ distribution of F-18 signal, stomach",[1]; 2 min post i.v. injection,3.69 % ID/g
same,"Organ distribution of F-18 signal, stomach",[1]; 5 min post i.v. injection,2.84 % ID/g
same,"Organ distribution of F-18 signal, stomach",[1]; 30 min post i.v. injection,2.40 % ID/g
same,"Organ distribution of F-18 signal, stomach",[1]; 60 min post i.v. injection,1.09 % ID/g
same,"Organ distribution of F-18 signal, stomach",[1]; 240 min post i.v. injection,0.50 % ID/g
same,"Organ distribution of F-18 signal, tail",[1]; 2 min post i.v. injection,8.65 % ID/g
same,"Organ distribution of F-18 signal, tail",[1]; 5 min post i.v. injection,6.65 % ID/g
same,"Organ distribution of F-18 signal, tail",[1]; 30 min post i.v. injection,1.86 % ID/g
same,"Organ distribution of F-18 signal, tail",[1]; 60 min post i.v. injection,1.00 % ID/g
same,"Organ distribution of F-18 signal, tail",[1]; 240 min post i.v. injection,0.69 % ID/g
same,"Organ distribution of F-18 signal, testicle",[1]; 2 min post i.v. injection,1.53 % ID/g
same,"Organ distribution of F-18 signal, testicle",[1]; 5 min post i.v. injection,1.81 % ID/g
same,"Organ distribution of F-18 signal, testicle",[1]; 30 min post i.v. injection,1.28 % ID/g
same,"Organ distribution of F-18 signal, testicle",[1]; 60 min post i.v. injection,0.52 % ID/g
same,"Organ distribution of F-18 signal, testicle",[1]; 240 min post i.v. injection,0.06 % ID/g
same,"Organ distribution of F-18 signal, thyroid",[1]; 2 min post i.v. injection,2.51 % ID/g
same,"Organ distribution of F-18 signal, thyroid",[1]; 5 min post i.v. injection,2.62 % ID/g
same,"Organ distribution of F-18 signal, thyroid",[1]; 30 min post i.v. injection,1.26 % ID/g
same,"Organ distribution of F-18 signal, thyroid",[1]; 60 min post i.v. injection,0.56 % ID/g
same,"Organ distribution of F-18 signal, thyroid",[1]; 240 min post i.v. injection,0.35 % ID/g
same,autoradiographical analysis of binding to cryosections from cortex,Aβ plaques,Specific binding in plaque-rich regions of AD samples

# — patent US20110250135A1, “Piperazine Derivatives for Binding and Imaging Amyloid Plaques and Their Use” (Bayer Schering Pharma Aktiengesellschaft, priority 2008, published 2011)
